The source of these data is patent US20100222269A1, “IMPROVED DERIVATIVES OF AMYLIN” (priority 2007, published 2010).

Starred links: 1 amine or outer side, 2 acyl side, 3 side chain; linkers in the order of their positions; H or OH if unused. Positions of bridges follow the written chain, without caps; N, C: chain ends. Residues, ends and D or L forms follow the SMILES beside them. Groups on a side chain read outwards from the residue. *: point of attachment. X1 = O=C(CCCCCCCCCCCCCCCc1nnn[nH]1)NS(=O)(=O)CCCC(=O)*; C20 diacid = O=C(O)CCCCCCCCCCCCCCCCCCC(=O)*; C18 diacid = O=C(O)CCCCCCCCCCCCCCCCC(=O)*; γGlu = O=C(O)[C@H](CCC(=O)[*:2])N[*:1]; AEEA = NCCOCCOCC(=O)O

The target in the first assay is T1, Amylin 3(a) receptor (human calcitonin receptor (CTa) with RAMP-3) (Homo sapiens, UniProt O60896+P30988).
T1 construct: expressed in transfected cells; host or cells: BHK570 (baby hamster kidney) cells, stably transfected, with CRE-luciferase reporter
T1 sequence (O60896 24-148): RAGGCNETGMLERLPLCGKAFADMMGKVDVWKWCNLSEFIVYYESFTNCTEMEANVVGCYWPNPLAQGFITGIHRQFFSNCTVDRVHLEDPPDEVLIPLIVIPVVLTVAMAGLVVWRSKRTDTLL
T1 sequence (P30988 25-474): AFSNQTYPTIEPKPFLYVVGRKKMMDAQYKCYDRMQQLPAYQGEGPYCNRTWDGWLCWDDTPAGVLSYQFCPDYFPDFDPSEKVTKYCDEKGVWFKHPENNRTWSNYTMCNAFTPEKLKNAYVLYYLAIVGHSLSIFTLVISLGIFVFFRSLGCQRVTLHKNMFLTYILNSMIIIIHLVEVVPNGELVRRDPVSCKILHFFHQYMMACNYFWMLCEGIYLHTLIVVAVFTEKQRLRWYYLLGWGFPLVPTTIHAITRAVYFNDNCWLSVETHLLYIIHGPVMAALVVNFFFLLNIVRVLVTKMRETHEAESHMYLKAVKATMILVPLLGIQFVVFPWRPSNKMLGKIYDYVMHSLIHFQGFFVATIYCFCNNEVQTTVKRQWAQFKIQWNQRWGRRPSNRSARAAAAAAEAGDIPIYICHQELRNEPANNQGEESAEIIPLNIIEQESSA
Put plainly: Amylin luciferase assay (CRE-luciferase reporter in BHK Amylin 3(a)//CRE-luc cells).
Conditions: not given
In kind it is cell-based. Put shortly:
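BHK570 cells stably expressing human calcitonin receptor (CTa), RAMP-3 and a CRE-luciferase reporter, about 20.000 cells/well, were exposed to standard or sample for 4 h at 37° C in phenol-red-free DMEM with 10% FBS and 10 mM Hepes pH 7,4. Luminescence was read after 30 min with LucLite at room temperature.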
For the compound `CC(C)C[C@H](NC(=O)[C@H](CC(N)=O)NC(=O)[C@H](CCC(N)=O)NC(=O)[C@H](CO)NC(=O)[C@H](CO)NC(=O)[C@H](CCCNC(=N)N)NC(=O)[C@@H](NC(=O)[C@H](CC(C)C)NC(=O)[C@H](Cc1ccccc1)NC(=O)[C@H](CC(N)=O)NC(=O)[C@H](C)NC(=O)[C@H](CC(C)C)NC(=O)[C@H](CCCNC(=N)N)NC(=O)[C@H](CCC(N)=O)NC(=O)[C@@H](NC(=O)[C@H](C)NC(=O)[C@@H]1CSSC[C@H](NC(=O)[C@H](CCC(=O)O)NC(=O)[C@H](CCCNC(=N)N)NC(=O)[C@H](CCC(=O)O)NC(=O)[C@H](CCC(=O)O)NC(=O)CCCCCCCCCCCCCCCCCCC(=O)O)C(=O)N[C@@H](CCC(N)=O)C(=O)N[C@@H]([C@@H](C)O)C(=O)N[C@@H](C)C(=O)N[C@@H]([C@@H](C)O)C(=O)N1)[C@@H](C)O)C(C)C)C(=O)NCC(=O)N1CCC[C@H]1C(=O)N[C@H](C(=O)N[C@@H](CC(C)C)C(=O)N1CCC[C@H]1C(=O)N1CCC[C@H]1C(=O)N[C@H](C(=O)N[C@@H](CC(N)=O)C(=O)N[C@H](C(=O)NCC(=O)N[C@@H](CO)C(=O)N[C@@H](CC(N)=O)C(=O)N[C@H](C(=O)N[C@@H](Cc1ccc(O)cc1)C(N)=O)[C@@H](C)O)C(C)C)[C@@H](C)O)C(C)C` [Example 35, N-alpha-(19-carboxynonadecanoyl)-Glu-Glu-Arg-[Glu1,Gln3,Arg18,Gln21,Leu23,Val26]-pramlintide (1-37)] ({C20 diacid}-EERECQTATCATQRLANFLVRSSQNLGPVLPPTNVGSNTY-NH2; disulfide 5-10; C-terminus assumed), the EC50 was found to be 0.09 nM.

The same assay, now with this note: BHK570 cells with human calcitonin receptor (CTa), RAMP-3 and CRE-luciferase reporter; 4 hours incubation; read-out: Potency luciferase assay.
Turning to `CC[C@H](C)[C@H](NC(=O)[C@H](CCCCNC(=O)CC[C@H](NC(=O)CCCCCCCCCCCCCCCCC(=O)O)C(=O)O)NC(=O)CNC(=O)[C@H](Cc1ccccc1)NC(=O)[C@H](CC(N)=O)NC(=O)[C@H](CC(N)=O)NC(=O)[C@H](CO)NC(=O)[C@H](CO)NC(=O)[C@H](Cc1c[nH]cn1)NC(=O)[C@@H](NC(=O)[C@H](CC(C)C)NC(=O)[C@H](Cc1ccccc1)NC(=O)[C@H](CC(N)=O)NC(=O)[C@H](C)NC(=O)[C@H](CC(C)C)NC(=O)[C@H](CCCNC(=N)N)NC(=O)[C@H](CCC(N)=O)NC(=O)[C@@H](NC(=O)[C@H](C)NC(=O)[C@@H]1CSSC[C@H](NC(=O)[C@@H](N)CCCCN)C(=O)N[C@@H](CC(N)=O)C(=O)N[C@@H]([C@@H](C)O)C(=O)N[C@@H](C)C(=O)N[C@@H]([C@@H](C)O)C(=O)N1)[C@@H](C)O)C(C)C)C(=O)N[C@@H](CC(C)C)C(=O)N1CCC[C@H]1C(=O)N1CCC[C@H]1C(=O)N[C@H](C(=O)N[C@@H](CC(N)=O)C(=O)N[C@H](C(=O)NCC(=O)N[C@@H](CO)C(=O)N[C@@H](CC(N)=O)C(=O)N[C@H](C(=O)N[C@@H](Cc1ccc(O)cc1)C(N)=O)[C@@H](C)O)C(C)C)[C@@H](C)O` [Example 27, N-epsilon25-[(S)-4-carboxy-4-(17-carboxyheptadecanoylamino)butyryl]-[Lys25]-pramlintide (1-37)] (H-KCNTATCATQRLANFLVHSSNNFGK([γGlu-C18 diacid])ILPPTNVGSNTY-NH2; disulfide 2-7; N-terminus assumed), the EC50 turned out to be 0.09 nM. The same measure, in the same setting: under `CC(C)C[C@H](NC(=O)[C@H](CC(N)=O)NC(=O)[C@H](CCC(N)=O)NC(=O)[C@H](CO)NC(=O)[C@H](CO)NC(=O)[C@H](CCCNC(=N)N)NC(=O)[C@@H](NC(=O)[C@H](CC(C)C)NC(=O)[C@H](Cc1ccccc1)NC(=O)[C@H](CC(N)=O)NC(=O)[C@H](C)NC(=O)[C@H](CC(C)C)NC(=O)[C@H](CCCNC(=N)N)NC(=O)[C@H](CCC(N)=O)NC(=O)[C@@H](NC(=O)[C@H](C)NC(=O)[C@@H]1CSSC[C@H](NC(=O)[C@@H](N)CCCCN)C(=O)N[C@@H](CCCCNC(=O)CC[C@H](NC(=O)CCCCCCCCCCCCCCCCC(=O)O)C(=O)O)C(=O)N[C@@H]([C@@H](C)O)C(=O)N[C@@H](C)C(=O)N[C@@H]([C@@H](C)O)C(=O)N1)[C@@H](C)O)C(C)C)C(=O)NCC(=O)N1CCC[C@H]1C(=O)N[C@H](C(=O)N[C@@H](CC(C)C)C(=O)N1CCC[C@H]1C(=O)N1CCC[C@H]1C(=O)N[C@H](C(=O)N[C@@H](CC(N)=O)C(=O)N[C@H](C(=O)NCC(=O)N[C@@H](CO)C(=O)N[C@@H](CC(N)=O)C(=O)N[C@H](C(=O)N[C@@H](Cc1ccc(O)cc1)C(N)=O)[C@@H](C)O)C(C)C)[C@@H](C)O)C(C)C` [Example 28, N-epsilon3-[(S)-4-Carboxy-4-(17-carboxyheptadecanoylamino)butyryl]-[Lys3,Arg18,Gln21,Leu23,Val26]-pramlintide (1-37)] (H-KCK([γGlu-C18 diacid])TATCATQRLANFLVRSSQNLGPVLPPTNVGSNTY-NH2; disulfide 2-7) stands 0.04 nM; under `CC[C@H](C)[C@H](NC(=O)[C@@H]1CCCN1C(=O)CNC(=O)[C@H](Cc1ccccc1)NC(=O)[C@H](CC(N)=O)NC(=O)[C@H](CC(N)=O)NC(=O)[C@H](CO)NC(=O)[C@H](CO)NC(=O)[C@H](Cc1c[nH]cn1)NC(=O)[C@@H](NC(=O)[C@H](CC(C)C)NC(=O)[C@H](Cc1ccccc1)NC(=O)[C@H](CC(N)=O)NC(=O)[C@H](C)NC(=O)[C@H](CC(C)C)NC(=O)[C@H](CCCNC(=N)N)NC(=O)[C@H](CCC(N)=O)NC(=O)[C@@H](NC(=O)[C@H](C)NC(=O)[C@@H]1CSSC[C@H](NC(=O)[C@@H](N)CCCCN)C(=O)N[C@@H](CCCCNC(=O)COCCOCCNC(=O)CCCS(=O)(=O)NC(=O)CCCCCCCCCCCCCCCc2nnn[nH]2)C(=O)N[C@@H]([C@@H](C)O)C(=O)N[C@@H](C)C(=O)N[C@@H]([C@@H](C)O)C(=O)N1)[C@@H](C)O)C(C)C)C(=O)N[C@@H](CC(C)C)C(=O)N1CCC[C@H]1C(=O)N1CCC[C@H]1C(=O)N[C@H](C(=O)N[C@@H](CC(N)=O)C(=O)N[C@H](C(=O)NCC(=O)N[C@@H](CO)C(=O)N[C@@H](CC(N)=O)C(=O)N[C@H](C(=O)N[C@@H](Cc1ccc(O)cc1)C(N)=O)[C@@H](C)O)C(C)C)[C@@H](C)O` [Example 30, N-epsilon3-[2-(2-{2-[4-(16-1H-tetrazol-5-yl-hexadecanoylsulfamoyl)butyrylamino]ethoxy}ethoxy)acetyl]-[Lys3]pramlintide (1-37)] (H-KCK([AEEA-X1])TATCATQRLANFLVHSSNNFGPILPPTNVGSNTY-NH2; disulfide 2-7; N-terminus and C-terminus assumed), 0.1 nM; under `CC[C@H](C)[C@H](NC(=O)[C@@H]1CCCN1C(=O)CNC(=O)[C@H](Cc1ccccc1)NC(=O)[C@H](CC(N)=O)NC(=O)[C@H](CC(N)=O)NC(=O)[C@H](CO)NC(=O)[C@H](CO)NC(=O)[C@H](Cc1c[nH]cn1)NC(=O)[C@@H](NC(=O)[C@H](CC(C)C)NC(=O)[C@H](Cc1ccccc1)NC(=O)[C@H](CC(N)=O)NC(=O)[C@H](C)NC(=O)[C@H](CC(C)C)NC(=O)[C@H](CCCNC(=N)N)NC(=O)[C@H](CCC(N)=O)NC(=O)[C@@H](NC(=O)[C@H](C)NC(=O)[C@@H]1CSSC[C@H](NC(=O)[C@H](CCC(=O)O)NC(=O)[C@H](CCCNC(=N)N)NC(=O)[C@H](CCC(=O)O)NC(=O)[C@H](CCC(=O)O)NC(=O)CCCS(=O)(=O)NC(=O)CCCCCCCCCCCCCCCc2nnn[nH]2)C(=O)N[C@@H](CC(N)=O)C(=O)N[C@@H]([C@@H](C)O)C(=O)N[C@@H](C)C(=O)N[C@@H]([C@@H](C)O)C(=O)N1)[C@@H](C)O)C(C)C)C(=O)N[C@@H](CC(C)C)C(=O)N1CCC[C@H]1C(=O)N1CCC[C@H]1C(=O)N[C@H](C(=O)N[C@@H](CC(N)=O)C(=O)N[C@H](C(=O)NCC(=O)N[C@@H](CO)C(=O)N[C@@H](CC(N)=O)C(=O)N[C@H](C(=O)N[C@@H](Cc1ccc(O)cc1)C(N)=O)[C@@H](C)O)C(C)C)[C@@H](C)O` [Example 31, N-alpha-[4-(16-1H-tetrazol-5-yl-hexadecanoylsulfamoyl)-butyryl]-Glu-Glu-Arg-[Glu1]pramlintide (1-37)] (X1-EERECNTATCATQRLANFLVHSSNNFGPILPPTNVGSNTY-NH2; disulfide 5-10), 0.09 nM. Consider `CC(C)C[C@H](NC(=O)[C@H](CC(N)=O)NC(=O)[C@H](CCC(N)=O)NC(=O)[C@H](CO)NC(=O)[C@H](CO)NC(=O)[C@H](CCCNC(=N)N)NC(=O)[C@@H](NC(=O)[C@H](CC(C)C)NC(=O)[C@H](Cc1ccccc1)NC(=O)[C@H](CC(N)=O)NC(=O)[C@H](C)NC(=O)[C@H](CC(C)C)NC(=O)[C@H](CCCNC(=N)N)NC(=O)[C@H](CCC(N)=O)NC(=O)[C@@H](NC(=O)[C@H](C)NC(=O)[C@@H]1CSSC[C@H](NC(=O)[C@H](CCC(=O)O)NC(=O)[C@H](CCC(=O)O)NC(=O)[C@H](CCC(=O)O)NC(=O)[C@H](CCC(=O)O)NC(=O)CCCCCCCCCCCCCCCCCCC(=O)O)C(=O)N[C@@H](CCC(N)=O)C(=O)N[C@@H]([C@@H](C)O)C(=O)N[C@@H](C)C(=O)N[C@@H]([C@@H](C)O)C(=O)N1)[C@@H](C)O)C(C)C)C(=O)NCC(=O)N1CCC[C@H]1C(=O)N[C@H](C(=O)N[C@@H](CC(C)C)C(=O)N1CCC[C@H]1C(=O)N1CCC[C@H]1C(=O)N[C@H](C(=O)N[C@@H](CC(N)=O)C(=O)N[C@H](C(=O)NCC(=O)N[C@@H](CO)C(=O)N[C@@H](CC(N)=O)C(=O)N[C@H](C(=O)N[C@@H](Cc1ccc(O)cc1)C(N)=O)[C@@H](C)O)C(C)C)[C@@H](C)O)C(C)C` [Example 37, N-alpha-(19-carboxynonadecanoyl)-Glu-Glu-Glu-[Glu1,Gln3,Arg18,Gln21,Leu23,Val26]-pramlintide (1-37)] ({C20 diacid}-EEEECQTATCATQRLANFLVRSSQNLGPVLPPTNVGSNTY-NH2; disulfide 5-10), for which the EC50 stood at 2 nM.
